A compilation of properties of binary mixtures (doi:10.1016/j.jct.2016.06.015)

Experiment: xn = mol fraction of the nth substance listed
Settings: 100 kPa

## CC[n+]1ccn(C)c1.F[B-](F)(F)F + C1COCCO1
293.15 K, x2 = 0.1664
  viscosity: 35.8 mPa·s
293.15 K, x2 = 0.2149
  viscosity: 32.1 mPa·s
293.15 K, x2 = 0.3162
  viscosity: 24.9 mPa·s
293.15 K, x2 = 0.3591
  viscosity: 22.2 mPa·s
293.15 K, x2 = 0.5077
  viscosity: 13.8 mPa·s
293.15 K, x2 = 0.5453
  viscosity: 12.2 mPa·s
293.15 K, x2 = 0.6708
  viscosity: 7.1 mPa·s
298.15 K, x2 = 0
  viscosity: 41.5 mPa·s
298.15 K, x2 = 0.1664
  viscosity: 29.8 mPa·s
298.15 K, x2 = 0.3162
  viscosity: 21 mPa·s
298.15 K, x2 = 0.3591
  viscosity: 18.8 mPa·s
298.15 K, x2 = 0.5077
  viscosity: 12 mPa·s
298.15 K, x2 = 0.5453
  viscosity: 10.6 mPa·s
298.15 K, x2 = 0.6708
  viscosity: 6.42 mPa·s
303.15 K, x2 = 0.3162
  viscosity: 18.1 mPa·s
303.15 K, x2 = 0.3591
  viscosity: 16.2 mPa·s
303.15 K, x2 = 0.5077
  viscosity: 10.5 mPa·s
303.15 K, x2 = 0.6708
  viscosity: 5.51 mPa·s
313.15 K, x2 = 0
  viscosity: 24.8 mPa·s
313.15 K, x2 = 0.1664
  viscosity: 18.5 mPa·s
313.15 K, x2 = 0.3162
  viscosity: 13.6 mPa·s
313.15 K, x2 = 0.3591
  viscosity: 12.3 mPa·s
313.15 K, x2 = 0.5077
  viscosity: 8.21 mPa·s
313.15 K, x2 = 0.5453
  viscosity: 7.33 mPa·s
313.15 K, x2 = 0.6708
  viscosity: 4.48 mPa·s
323.15 K, x2 = 0.1664
  viscosity: 14.3 mPa·s
323.15 K, x2 = 0.2149
  viscosity: 13 mPa·s
323.15 K, x2 = 0.3162
  viscosity: 10.6 mPa·s
323.15 K, x2 = 0.3591
  viscosity: 9.69 mPa·s
323.15 K, x2 = 0.6708
  viscosity: 3.86 mPa·s
333.15 K, x2 = 0
  viscosity: 14.5 mPa·s
333.15 K, x2 = 0.1664
  viscosity: 11.1 mPa·s
333.15 K, x2 = 0.2149
  viscosity: 10.3 mPa·s
333.15 K, x2 = 0.3162
  viscosity: 8.52 mPa·s
333.15 K, x2 = 0.5453
  viscosity: 4.9 mPa·s
333.15 K, x2 = 0.6708
  viscosity: 3.11 mPa·s
343.15 K, x2 = 0
  viscosity: 11.7 mPa·s
343.15 K, x2 = 0.1664
  viscosity: 8.96 mPa·s
343.15 K, x2 = 0.2149
  viscosity: 8.38 mPa·s
343.15 K, x2 = 0.3162
  viscosity: 6.97 mPa·s
343.15 K, x2 = 0.3591
  viscosity: 6.41 mPa·s
343.15 K, x2 = 0.5077
  viscosity: 4.53 mPa·s
343.15 K, x2 = 0.5453
  viscosity: 4.12 mPa·s
343.15 K, x2 = 0.6708
  viscosity: 2.65 mPa·s
353.15 K, x2 = 0
  viscosity: 9.58 mPa·s
353.15 K, x2 = 0.1664
  viscosity: 7.38 mPa·s
353.15 K, x2 = 0.2149
  viscosity: 6.91 mPa·s
353.15 K, x2 = 0.3162
  viscosity: 5.81 mPa·s
353.15 K, x2 = 0.3591
  viscosity: 5.37 mPa·s
353.15 K, x2 = 0.5077
  viscosity: 3.86 mPa·s
353.15 K, x2 = 0.6708
  viscosity: 2.3 mPa·s

## C1COCCO1 + CC[n+]1ccn(C)c1.F[B-](F)(F)F
293.15 K, x1 = 1
  viscosity: 1.29 mPa·s
298.15 K, x1 = 1
  viscosity: 1.18 mPa·s
303.15 K, x1 = 1
  viscosity: 1.09 mPa·s
313.15 K, x1 = 1
  viscosity: 0.934 mPa·s
333.15 K, x1 = 1
  viscosity: 0.718 mPa·s
353.15 K, x1 = 1
  viscosity: 0.577 mPa·s

## CC[n+]1ccn(C)c1.F[B-](F)(F)F + OCCO
293.15 K, x2 = 0
  viscosity: 50.5 mPa·s
293.15 K, x2 = 0.099
  viscosity: 36.8 mPa·s
293.15 K, x2 = 0.2174
  viscosity: 26.8 mPa·s
293.15 K, x2 = 0.283
  viscosity: 23.4 mPa·s
293.15 K, x2 = 0.4435
  viscosity: 18 mPa·s
293.15 K, x2 = 0.5237
  viscosity: 16.5 mPa·s
293.15 K, x2 = 0.5876
  viscosity: 15.8 mPa·s
293.15 K, x2 = 0.7916
  viscosity: 15 mPa·s
293.15 K, x2 = 0.8751
  viscosity: 15.8 mPa·s
298.15 K, x2 = 0
  viscosity: 41.5 mPa·s
298.15 K, x2 = 0.099
  viscosity: 30.7 mPa·s
298.15 K, x2 = 0.2174
  viscosity: 22.6 mPa·s
298.15 K, x2 = 0.5237
  viscosity: 13.8 mPa·s
298.15 K, x2 = 0.5876
  viscosity: 13.1 mPa·s
298.15 K, x2 = 0.7916
  viscosity: 12.3 mPa·s
298.15 K, x2 = 0.8751
  viscosity: 12.9 mPa·s
303.15 K, x2 = 0.099
  viscosity: 25.9 mPa·s
303.15 K, x2 = 0.2174
  viscosity: 19.3 mPa·s
303.15 K, x2 = 0.283
  viscosity: 16.9 mPa·s
303.15 K, x2 = 0.4435
  viscosity: 12.9 mPa·s
303.15 K, x2 = 0.5237
  viscosity: 11.8 mPa·s
303.15 K, x2 = 0.5876
  viscosity: 11.1 mPa·s
303.15 K, x2 = 0.6954
  viscosity: 10.3 mPa·s
303.15 K, x2 = 0.7916
  viscosity: 10.3 mPa·s
303.15 K, x2 = 0.8751
  viscosity: 10.8 mPa·s
313.15 K, x2 = 0
  viscosity: 24.8 mPa·s
313.15 K, x2 = 0.099
  viscosity: 19.1 mPa·s
313.15 K, x2 = 0.2174
  viscosity: 14.3 mPa·s
313.15 K, x2 = 0.283
  viscosity: 12.7 mPa·s
313.15 K, x2 = 0.5237
  viscosity: 8.77 mPa·s
313.15 K, x2 = 0.5876
  viscosity: 8.22 mPa·s
313.15 K, x2 = 0.6954
  viscosity: 7.56 mPa·s
313.15 K, x2 = 0.7916
  viscosity: 7.43 mPa·s
313.15 K, x2 = 0.8751
  viscosity: 7.71 mPa·s
323.15 K, x2 = 0
  viscosity: 18.6 mPa·s
323.15 K, x2 = 0.099
  viscosity: 14.6 mPa·s
323.15 K, x2 = 0.2174
  viscosity: 11.2 mPa·s
323.15 K, x2 = 0.283
  viscosity: 9.9 mPa·s
323.15 K, x2 = 0.5237
  viscosity: 6.81 mPa·s
323.15 K, x2 = 0.6954
  viscosity: 5.77 mPa·s
323.15 K, x2 = 0.7916
  viscosity: 5.6 mPa·s
323.15 K, x2 = 0.8751
  viscosity: 5.74 mPa·s
333.15 K, x2 = 0
  viscosity: 14.5 mPa·s
333.15 K, x2 = 0.099
  viscosity: 11.5 mPa·s
333.15 K, x2 = 0.2174
  viscosity: 8.98 mPa·s
333.15 K, x2 = 0.283
  viscosity: 7.96 mPa·s
333.15 K, x2 = 0.5876
  viscosity: 5.05 mPa·s
333.15 K, x2 = 0.6954
  viscosity: 4.55 mPa·s
333.15 K, x2 = 0.7916
  viscosity: 4.37 mPa·s
343.15 K, x2 = 0
  viscosity: 11.7 mPa·s
343.15 K, x2 = 0.099
  viscosity: 9.32 mPa·s
343.15 K, x2 = 0.2174
  viscosity: 7.34 mPa·s
343.15 K, x2 = 0.283
  viscosity: 6.53 mPa·s
343.15 K, x2 = 0.5237
  viscosity: 4.47 mPa·s
343.15 K, x2 = 0.6954
  viscosity: 3.69 mPa·s
343.15 K, x2 = 0.7916
  viscosity: 3.51 mPa·s
343.15 K, x2 = 0.8751
  viscosity: 3.5 mPa·s
353.15 K, x2 = 0.099
  viscosity: 7.69 mPa·s
353.15 K, x2 = 0.2174
  viscosity: 6.12 mPa·s
353.15 K, x2 = 0.283
  viscosity: 5.47 mPa·s
353.15 K, x2 = 0.4435
  viscosity: 4.21 mPa·s
353.15 K, x2 = 0.5237
  viscosity: 3.75 mPa·s
353.15 K, x2 = 0.8751
  viscosity: 2.85 mPa·s

## CC#N + CC[n+]1ccn(C)c1.F[B-](F)(F)F
293.15 K, x1 = 1
  viscosity: 0.386 mPa·s
298.15 K, x1 = 1
  viscosity: 0.37 mPa·s
313.15 K, x1 = 1
  viscosity: 0.327 mPa·s
323.15 K, x1 = 1
  viscosity: 0.302 mPa·s
333.15 K, x1 = 1
  viscosity: 0.281 mPa·s
343.15 K, x1 = 1
  viscosity: 0.262 mPa·s

## OCCO + CC[n+]1ccn(C)c1.F[B-](F)(F)F
303.15 K, x1 = 1
  viscosity: 14.3 mPa·s
313.15 K, x1 = 1
  viscosity: 10 mPa·s
333.15 K, x1 = 1
  viscosity: 5.33 mPa·s
353.15 K, x1 = 1
  viscosity: 3.24 mPa·s
